Entries after “also recorded” stand apart in the source; their conditions may differ. Read-outs that look alike come from different tables or passages of the source. No end group written: not given here.
Experiments:
[1] = target: T1, active-site-immobilized thrombin (Homo sapiens, UniProt P00734); experiment: Direct binding of the peptides to thrombin-agarose (chromatography); conditions: 400 μg peptide, 2.5 ml column, elution 2M NaCl
T1 construct: Factor Xa cleaves prothrombin to form thrombin; purchased Haematologic Technologies Inc. (Essex Junction, Vt.)
Experimental: Direct binding of the peptides to thrombin. Thrombin was immobilized onto agarose through the active site as described. Peptide solutions of HC1-HC5 (SEQ ID NO. 2-6, respectively), D13R (SEQ ID NO. 21), DYDYQ (SEQ ID NO. 11), and P15H (SEQ ID NO. 22) were dissolved in water to a given concentration and then diluted in 20 mM Hepes, 0.1 M NaCl, pH 7.4 in a manner that 400 μg was contained in each starting solution. In control experiments it was determined that the maximum amount of peptide that could be retained by the thrombin-agarose column was 400 μg. Since some of the peptides contain aromatic amino acid residues, their concentration was also measured by optical density.
Mass spectrometry instruments and conditions. The identity of all peptides found in the flow-through or the elution of the thrombin-agarose column was verified by mass spectrometry. Since the peptides were in a buffer solution, we used Liquid Chromatography/Mass Spectrometry (LC/MS) for their identification. In this procedure peptides are first separated from the salt content of the buffer using an HPLC system (HP 1100, HPLC gradient system, Agilent Technologies, Palo Alto Calif.) with a C18 column (1 mm×15 cm, GraceVydac, Hesperia Calif.) with buffers A (0.3% acetic acid in water) and B (0.3% acetic acid in acetonitrile). The elution of the column was monitored with a Micromass Quatro II ESI-Triple Quadrupole Mass Spectrometer (Waters, Milford Mass.). The data were collected using a Compaq Professional Workstation AP200 (Hewlett-Packard, Palo Alto Calif.) and analyzed by the software MassLynx v3.3 (Waters, Milford Mass.).
Direct interaction of hirudin-like peptides from factor tor Va heavy chain With thrombin-agarose. To ascertain that the peptides of interest are inhibitory of prothrombinase activity and contain a binding site for thrombin, the interaction of all peptides with active-site-immobilized thrombin was studied in chromatographic experiments and is shown in FIG. 5. In FIG. 5, small scale chromatography of hirudin-like peptides was performed on a 2.5 ml thrombin-agarose. Each run represents 400 μg of peptide. This amount of peptide was determined to saturate the specific sites of thrombin of the column used (2.5 ml). Elution was performed with 2M NaCl and was started at the point indicated by the arrow (fraction #30). The presence of the peptides in the corresponding fractions was monitored by absorbance at 280 nm (shown on the y axis) and by LC/MS (inset). […] Specifically, these peptides were treated similarly to all other peptides and similar fractions were collected. Aliquots from fractions #7 and #35 from each separate experiment were submitted to LC/MS analysis as described herein (depicted by the hatched arrows at the bottom of the chromatogram). The results from tube #7 from three chromatograms are depicted. The data are presented as % intensity of the signal as a function of the mass of the peptide divided by the charge (m/z). FIG. 5A, HC1 (Mr calculated 1268); FIG. 5B, HC2 (Mr calculated 1132); FIG. 5C, HC5 (Mr calculated 1053). The spectrum of HC1 has two major peaks: at 635.5 and at 424, and one minor peak at 1270 (1268+1). The peak at 635.5 represents the peptide (mass/charge) with two positive charges ([…]) i.e. [(1268+2=1270)]/2=635 whereas, the peak at 424 represents HC1 with three positive charges ([…]) i.e. [(1268+3=1271)]/3=424. […] HC5 spectrum has two major peaks: one at 528 and one at 352. The peak at 528 represents the peptide with two positive charges ([…]) i.e. [(1053+2=1055)]/2=527.5 while, the other peak represents HC5 with three positive charges ([M+31-]^2+) i.e. [(1053+3=1056)]/3=352. The minor peak at 1054 represents the peptide with one charge. It is noteworthy, that in gas phase the number of protons attached to each peptide depends on the number (quantity) of basic residues contained in each peptide. […] Thus, HC1 and HC5 are more likely to bind two or three protons than HC2. […]

prothrombin = target: T2, prothrombin (Homo sapiens, UniProt P00734); experiment: KD of peptide for prothrombin, from kinetics of prothrombinase inhibition; format: biochemical
T2 construct: purchased Haematologic Technologies Inc. (Essex Junction, Vt.)
Source text: The mechanism of inhibition of prothrombinase by the hirudin-like peptides HC3 and HC4 was addressed by investigating the effect of the peptides on the kinetic parameters of the enzymatic complex (Km and Vmax). For the sake of simplicity only the results obtained with HC4 are shown (FIG. 2C). In FIG. 2C, the data are plotted as V0 (initial velocity, in arbitrary units) as a function of increasing prothrombin concentration in the presence of increasing concentrations of HC4. The lines drawn represent the best fit through the points with an R^2 of 0.99. The concentrations of HC4 used in the experiments are as follows: control no peptide (filled squares), 0.5 μM peptide (filled circles), 1 μM peptide (filled inverted triangles), 1.5 μM peptide (filled diamonds), and 2 μM peptide (filled triangles). […]
In FIG. 3B, the data are plotted as V0 (initial velocity, in arbitrary units) as a function of increasing prothrombin concentration in the presence of increasing concentrations of peptide DYDYQ. […] The kinetic constants calculated from the data presented in this graph were used to calculate the kcat reported in FIG. 7 assuming a final concentration of 4 nM prothrombinase. […]

DYDYQ [DYDYQ, Asp-Tyr-Asp-Tyr-Gln] was tested, and the “interaction with immobilized thrombin (thrombin-agarose)” value [1] was “eluted from the column with high-salt buffer; also recorded: interact with immobilized thrombin”, the Kd (prothrombin; from Ki of prothrombinase inhibition, read-out: KD for prothrombin) was 850 nM and the Kd (prothrombin; kinetic model FIG. 7, read-out: KD of inhibitor interaction with prothrombin) was about 850 nM.

Reference: patent publication US20100267638A1, “EXOSITE-DIRECTED THROMBIN INHIBITORS” (CLEVELAND STATE UNIVERSITY, priority 2003, published 2010)
